Results as given in patent US12168012B2, “NLRP3 inflammasome inhibitors” (Novartis AG, priority 2018, dated 2024).

Tested on: NLRP3 inflammasome
Assay: IL-1β secretion assay
Format: cell-based
Conditions: Homo sapiens, THP-1, 3 h, PMA-differentiated THP-1 cells, 15 μM nigericin, HTRF
Procedure: 10 μL supernatant was removed, and IL-1p levels were monitored using an HTRF assay (CisBio, #62IL1PEC) according to manufacturers' instructions. Viability and pyroptosis was monitored with the addition of PrestoBlue cell viability reagent (Life Technologies, #A13261) directly to the cell culture plate.
IC50 values were calculated from the plot of percentage of inhibition versus the inhibitor concentration by a logistics fit according to: y=A2+(A1−A2)/(1+(x/IC50)^p) where y is the %-inhibition at the inhibitor concentration, x. A1 is the lowest inhibition value, i.e. 0%, and A2 the maximum inhibition value, i.e. 100%. The exponent, p, is the Hill coefficient. The curve fitting was conducted with an internally developed software suite.
NLRP3-dependent IL-1β secretion was stimulated in PMA-differentiated THP-1 cells by the addition of nigericin, and cytokines were measured in the […] after 3 hours. As discussed above, activation of the NLRP3 inflammasome requires both an NF-kB-dependent priming step and the addition of a NLRP3 activator.

For `CC(C)c1nn(CC(=O)N[C@H]2CCNC2)c(=O)c2cc3sc(Cl)cc3n12` [Ex 102, (S)-2-(2-Chloro-5-isopropyl-8-oxothieno[2′,3′:4,5]pyrrolo[1,2-d][1,2,4]triazin-7(8H)-yl)-N-(pyrrolidin-3-yl)acetamide], which IC50 is on record?
Its IC50 is 886 nM.

Which IC50 does the source give for `CC(C)c1nn(CC(=O)NC2CCCC2)c(=O)c2cc3scnc3n12` [Ex 98, N-Cyclopentyl-2-(5-isopropyl-8-oxothiazolo[5′,4′:4,5]pyrrolo[1,2-d][1,2,4]triazin-7(8H)-yl)acetamide] here?
The IC50 was 271 nM.

For `CC(C)c1nn(CC(=O)N[C@H]2CCN(C)C2)c(=O)c2cc3sc(Cl)cc3n12` [Ex 105, (S)-2-(2-Chloro-5-isopropyl-8-oxothieno[2′,3′:4,5]pyrrolo[1,2-d][1,2,4]triazin-7(8H)-yl)-N-(1-methylpyrrolidin-3-yl)acetamide], which IC50 is on record?
The IC50 was 838 nM.

Which IC50 does the source give for `CC(C)c1nn(CC(=O)NC[C@@H](C)O)c(=O)c2cc3sc(F)cc3n12` [Ex 85, (R)-2-(2-Fluoro-5-isopropyl-8-oxothieno[2′,3′:4,5]pyrrolo[1,2-d][1,2,4]triazin-7(8H)-yl)-N-(2-hydroxypropyl)acetamide] here?
Its IC50 is 130 nM.

`CC(C)c1nn(CC(=O)N[C@@H]2CCN(C)C2)c(=O)c2cc3sc(Cl)cc3n12` [Ex 104, (R)-2-(2-Chloro-5-isopropyl-8-oxothieno[2′,3′:4,5]pyrrolo[1,2-d][1,2,4]triazin-7(8H)-yl)-N-(1-methylpyrrolidin-3-yl)acetamide] was tested. Which IC50 did it give?
The IC50 was 254 nM.

How did the IC50 turn out when `CC(C)c1nn(CC(=O)N[C@H]2C[C@](O)(C(F)(F)F)C2)c(=O)c2cc3sc(Cl)cc3n12` [Ex 74, 2-(2-Chloro-5-isopropyl-8-oxothieno[2′,3′:4,5]pyrrolo[1,2-d][1,2,4]triazin-7(8H)-yl)-N-((1s,3s)-3-hydroxy-3-(trifluoromethyl)cyclobutyl)acetamide] was run?
The IC50 was 4.4 nM.

For `CC(C)c1nn(CC(=O)NCCC(C)(C)O)c(=O)c2cc3sc(F)cc3n12` [Ex 84, 2-(2-Fluoro-5-isopropyl-8-oxothieno[2′,3′:4,5]pyrrolo[1,2-d][1,2,4]triazin-7(8H)-yl)-N-(3-hydroxy-3-methylbutyl)acetamide], which IC50 is on record?
Its IC50 is 12.9 nM.

For `CC(C)c1nn(CC(=O)N[C@]2(C)C[C@@H](O)C2)c(=O)c2cc3sc(Cl)cc3n12` [Ex 23, 2-(2-Chloro-5-isopropyl-8-oxothieno[2′,3′:4,5]pyrrolo[1,2-d][1,2,4]triazin-7(8H)-yl)-N-((1r,3r)-3-hydroxy-1-methylcyclobutyl)acetamide], which IC50 is on record?
Its IC50 is 452 nM.

With `CC(C)c1nn(CC(=O)N[C@H]2CC[C@H](C(=O)O)CC2)c(=O)c2cc3sc(F)cc3n12` [Ex 120, (1r,4r)-4-(2-(2-Fluoro-5-isopropyl-8-oxothieno[2′,3′:4,5]pyrrolo[1,2-d][1,2,4]triazin-7(8H)-yl)acetamido)cyclohexane-1-carboxylic acid] as the compound, how does the IC50 read?
The IC50 was 17.2 nM.

How did the IC50 turn out when `CC(C)c1nn(CC(=O)Nc2nccs2)c(=O)c2cc3sc(Cl)cc3n12` [Ex 11, 2-(2-Chloro-5-isopropyl-8-oxothieno[2′,3′:4,5]pyrrolo[1,2-d][1,2,4]triazin-7(8H)-yl)-N-(thiazol-2-yl)acetamide] was run?
Its IC50 is 62.5 nM.

For `CC(C)c1nn(CC(=O)N[C@H]2CC[C@H](C(=O)O)CC2)c(=O)c2cc3scnc3n12` [Ex 119, (1r,4r)-4-(2-(5-Isopropyl-8-oxothiazolo[5′,4′:4,5]pyrrolo[1,2-d][1,2,4]triazin-7(8H)-yl)acetamido)cyclohexane-1-carboxylic acid], which IC50 is on record?
The IC50 was 40.5 nM.

`Cc1nc2c(cc3c(=O)n(CC(=O)N[C@H]4CC[C@H](C(=O)O)CC4)nc(C(C)C)n32)s1` [Ex 118, (1r,4r)-4-(2-(5-Isopropyl-2-methyl-8-oxothiazolo[5′,4′:4,5]pyrrolo[1,2-d][1,2,4]triazin-7(8H)-yl)acetamido)cyclohexane-1-carboxylic acid] was tested. Which IC50 did it give?
The IC50 was 78.8 nM.

With `CC(C)c1nn(CC(=O)Nc2cncs2)c(=O)c2cc3sc(Cl)cc3n12` [Ex 12, 2-(2-Chloro-5-isopropyl-8-oxothieno[2′,3′:4,5]pyrrolo[1,2-d][1,2,4]triazin-7(8H)-yl)-N-(thiazol-5-yl)acetamide] as the compound, how does the IC50 read?
The IC50 was 23.7 nM.

With `CC(C)c1nn(CC(=O)N[C@H]2C[C@](C)(O)C2)c(=O)c2cc3sc(Cl)cc3n12` [Ex 71, 2-(2-Chloro-5-isopropyl-8-oxothieno[2′,3′:4,5]pyrrolo[1,2-d][1,2,4]triazin-7(8H)-yl)-N-((1r,3r)-3-hydroxy-3-methylcyclobutyl)acetamide] as the compound, how does the IC50 read?
Its IC50 is 15.9 nM.

Which IC50 does the source give for `CC(C)c1nn(CC(=O)Nc2ccc(F)nc2)c(=O)c2cc3sc(Cl)cc3n12` [Ex 14, 2-(2-Chloro-5-isopropyl-8-oxothieno[2′,3′:4,5]pyrrolo[1,2-d][1,2,4]triazin-7(8H)-yl)-N-(6-fluoropyridin-3-yl)acetamide] here?
Its IC50 is 90.6 nM.

With `CC(C)(O)c1nn(CC(=O)Nc2ccc3cc[nH]c3c2)c(=O)c2cc3sc(Cl)cc3n12` [Ex 67, 2-(2-Chloro-5-(2-hydroxypropan-2-yl)-8-oxothieno[2′,3′:4,5]pyrrolo[1,2-d][1,2,4]triazin-7(8H)-yl)-N-(1H-indol-6-yl)acetamide] as the compound, how does the IC50 read?
Its IC50 is 212 nM.

For `CC(C)c1nn(CC(=O)N[C@H]2C[C@@](C)(O)C2)c(=O)c2cc3sc(F)cc3n12` [Ex 87, 2-(2-Fluoro-5-isopropyl-8-oxothieno[2′,3′:4,5]pyrrolo[1,2-d][1,2,4]triazin-7(8H)-yl)-N-((1s,3s)-3-hydroxy-3-methylcyclobutyl)acetamide], which IC50 is on record?
The IC50 was 1 nM.

How did the IC50 turn out when `O=C(Cn1nc(C2CC2)n2c(cc3sc(Cl)cc32)c1=O)N[C@H]1CC[C@H](C(=O)O)CC1` [Ex 121, (1r,4r)-4-(2-(2-Chloro-5-cyclopropyl-8-oxothieno[2′,3′:4,5]pyrrolo[1,2-d][1,2,4]triazin-7(8H)-yl)acetamido)cyclohexane-1-carboxylic acid] was run?
Its IC50 is 44.1 nM.

With `CC(C)c1nn(CC(=O)N[C@H]2C[C@@](C)(O)C2)c(=O)c2cc3scnc3n12` [Ex 93, N-((1s,3s)-3-Hydroxy-3-methylcyclobutyl)-2-(5-isopropyl-8-oxothiazolo[5′,4′:4,5]pyrrolo[1,2-d][1,2,4]triazin-7(8H)-yl)acetamide] as the compound, how does the IC50 read?
The IC50 was 0.8 nM.

How did the IC50 turn out when `CC(C)c1nn(CC(=O)NC2CC3(CC(O)C3)C2)c(=O)c2cc3sc(Cl)cc3n12` (stereo not drawn) [Ex 73, 2-(2-Chloro-5-isopropyl-8-oxothieno[2′,3′:4,5]pyrrolo[1,2-d][1,2,4]triazin-7(8H)-yl)-N-(6-hydroxyspiro[3.3]heptan-2-yl)acetamide] was run?
The IC50 was 14.5 nM.

How did the IC50 turn out when `CC(C)c1nn(CC(=O)NCCC2(O)CC2)c(=O)c2cc3sc(Cl)cc3n12` [Ex 110, 2-(2-Chloro-5-isopropyl-8-oxothieno[2′,3′:4,5]pyrrolo[1,2-d][1,2,4]triazin-7(8H)-yl)-N-(2-(1-hydroxycyclopropyl)ethyl)acetamide] was run?
Its IC50 is 115 nM.

For `CC(C)c1nn(CC(=O)N[C@@H]2CC[C@@H](N)C2)c(=O)c2cc3sc(Cl)cc3n12` [Ex 22, N-((1R,3R)-3-Aminocyclopentyl)-2-(2-chloro-5-isopropyl-8-oxothieno[2′,3′:4,5]pyrrolo[1,2-d][1,2,4]triazin-7(8H)-yl)acetamide], which IC50 is on record?
The IC50 was 408 nM.

`CC(C)c1nn(CC(=O)Nc2ccnn2C)c(=O)c2cc3sc(Cl)cc3n12` [Ex 57, 2-(2-Chloro-5-isopropyl-8-oxothieno[2′,3′:4,5]pyrrolo[1,2-d][1,2,4]triazin-7(8H)-yl)-N-(1-methyl-1H-pyrazol-5-yl)acetamide] was tested. Which IC50 did it give?
Its IC50 is 61.5 nM.

Which IC50 does the source give for `Cc1nc2c(cc3c(=O)n(CC(=O)N[C@@H]4CCCN(C)C4)nc(C(C)C)n32)s1` [Ex 92, (R)-2-(5-Isopropyl-2-methyl-8-oxothiazolo[5′,4′:4,5]pyrrolo[1,2-d][1,2,4]triazin-7(8H)-yl)-N-(1-methylpiperidin-3-yl)acetamide] here?
Its IC50 is 65.2 nM.

Which IC50 does the source give for `CC(C)c1nn(CC(=O)Nc2ncncc2Cl)c(=O)c2cc3sc(Cl)cc3n12` [Ex 16, 2-(2-Chloro-5-isopropyl-8-oxothieno[2′,3′:4,5]pyrrolo[1,2-d][1,2,4]triazin-7(8H)-yl)-N-(5-chloropyrimidin-4-yl)acetamide] here?
Its IC50 is 57.3 nM.

For `CC(C)c1nn(CC(=O)NC2CCCC2)c(=O)c2cc3sc(Cl)cc3n12` [Ex 101, 2-(2-chloro-5-Isopropyl-8-oxothieno[2′,3′:4,5]pyrrolo[1,2-d][1,2,4]triazin-7(8H)-yl)-N-cyclopentylacetamide], which IC50 is on record?
Its IC50 is 381 nM.

With `CC(C)c1nn(CC(=O)Nc2cc(C(F)F)ncn2)c(=O)c2cc3sc(Cl)cc3n12` [Ex 112, 2-(2-Chloro-5-isopropyl-8-oxothieno[2′,3′:4,5]pyrrolo[1,2-d][1,2,4]triazin-7(8H)-yl)-N-(6-(difluoromethyl)pyrimidin-4-yl)acetamide] as the compound, how does the IC50 read?
Its IC50 is 253 nM.

Which IC50 does the source give for `CC(C)c1nn(CC(=O)NC23CC(C(=O)O)(C2)C3)c(=O)c2cc3sc(Cl)cc3n12` [Ex 123, 3-(2-(2-Chloro-5-isopropyl-8-oxothieno[2′,3′:4,5]pyrrolo[1,2-d][1,2,4]triazin-7(8H)-yl)acetamido)bicyclo[1.1.1]pentane-1-carboxylic acid] here?
The IC50 was 2080 nM.

How did the IC50 turn out when `CC(C)c1nn(CC(=O)N[C@H]2C[C@@H](O)C2)c(=O)c2cc3sc(Cl)cc3n12` [Ex 109, 2-(2-Chloro-5-isopropyl-8-oxothieno[2′,3′:4,5]pyrrolo[1,2-d][1,2,4]triazin-7(8H)-yl)-N-((1s,3s)-3-hydroxycyclobutyl)acetamide] was run?
Its IC50 is 221 nM.

Which IC50 does the source give for `CC(C)c1nn(CC(=O)N[C@@H]2CCCN(CCOC(F)(F)F)C2)c(=O)c2cc3sc(Cl)cc3n12` [Ex 78, (R)-2-(2-Chloro-5-isopropyl-8-oxothieno[2′,3′:4,5]pyrrolo[1,2-d][1,2,4]triazin-7(8H)-yl)-N-(1-(2-(trifluoromethoxy)ethyl)piperidin-3-yl)acetamide] here?
Its IC50 is 71.4 nM.
